Results reported in US20090209494A1, “21-DEOXYMACBECIN ANALOGUES USEFUL AS ANTITUMOR AGENTS” (priority 2005, published 2009).
≈ marks a conversion by molar mass, not a printed value. Where two headings read alike, the source gives them in different places.

Tests used:
Solubility assay = type: physicochemical; details: aqueous buffer, kinetic from dmso stock; 2% DMSO in PBS pH 7.3; shaken up to six hours; maximum measurable 0.5 mM
Procedure: Solutions (25 mM) of the test compounds were prepared by dissolving 3-5 mg aliquots in the appropriate amount of DMSO.
Aliquots (0.01 mL) were added to 0.490 mL of pH 7.3 PBS in glass vials. For each time point, 3 PBS vials were prepared in amber glass vials. For the six hour time point triplicate aliquots in DMSO were also prepared.
The resulting 0.5 mM solutions were shaken for up to six hours, with vials removed for analysis at 1, 3 and 6 hours. Samples were analysed by HPLC (0.025 mL injections).
Solubility in 2% DMSO in PBS at each time point was determined by comparing total peak areas for each chromatogram with mean total peak area for chromatograms produced from the corresponding 6 hour DMSO solutions. (Mean total peak area in DMSO solutions was assumed to be equivalent to a 0.5 mM solution).

Hsp90 = Hsp90 (Homo sapiens, UniProt P07900); details: cited from earlier work
DU145 [1] = assay: in vitro anticancer activity in combination with compound 14, modified propidium iodide assay; type: cell-based, human
Procedure: Standard agents were applied at 10 concentrations in sextuplicates in half-log increments. […] Growth inhibition is expressed as treated/control×100 (% T/C), and IC70 values for each combination were determined by plotting compound concentration versus cell viability.
In vitro evaluation of 14 for anticancer activity when combined with standard cytotoxic agents against the tumour cell line DU145 in a monolayer proliferation assay was carried out as described in the general methods using a modified propidium iodide assay.

394NL = assay: monolayer proliferation assay (modified propidium iodide assay), 394NL; type: cell-based, human; details: 4 days exposure, median of duplicate experiments
Procedure: (§1) In vitro evaluation of compounds for anticancer activity in a panel of 38 human tumour cell lines in a monolayer proliferation assay was carried out at the Oncotest Testing Facility, Institute for Experimental Oncology, Oncotest GmbH, Freiburg.
(§2) The Oncotest cell lines are established from human tumor xenografts as described by Roth et al., (1999). The origin of the donor xenografts was described by Fiebig et al., (1999). Other cell lines are either obtained from the NCl (H460, SF-268, OVCAR-3, DU145, MDA-MB-231, MDA-MB-468) or purchased from DSMZ, Braunschweig, Germany (LNCAP).
(§3) All cell lines, unless otherwise specified, were grown at 37° C. in a humidified atmosphere (95% air, 5% CO2) in a ‘ready-mix’ medium containing RPMI 1640 medium, 10% fetal calf serum, and 0.1 mg/mL gentamicin (PAA, Cölbe, Germany).
(§4) A modified propidium iodide assay was used to assess the effects of the test compound(s) on the growth of human tumour cell lines (Dengler et al., (1995)).
(§5) Briefly, cells were harvested from exponential phase cultures by trypsinization, counted and plated in 96 well flat-bottomed microtitre plates at a cell density dependent on the cell line (5-10.000 viable cells/well). After 24 h recovery to allow the cells to resume exponential growth, 0.010 mL of culture medium (6 control wells per plate) or culture medium containing a 21-deoxymacbecin analogue was added to the wells. Each concentration was plated in triplicate. […] Following 4 days of continuous exposure, cell culture medium with or without test compound was replaced by 0.2 mL of an aqueous propidium iodide (PI) solution (7 mg/L). To measure the proportion of living cells, cells were permeabilized by freezing the plates. After thawing the plates, fluorescence was measured using the Cytofluor 4000 microplate reader (excitation 530 nm, emission 620 nm), giving a direct relationship to the total number of viable cells.
(§6) Growth inhibition was expressed as treated/control×100 (% T/C). For active compounds, IC70 values were estimated by plotting compound concentration versus cell viability.
(§7) In vitro evaluation of the test compounds for anticancer activity in a panel of human tumour cell lines in a monolayer proliferation assay was carried out as described in the general methods using a modified propidium iodide assay.

OVCAR3 = assay: monolayer proliferation assay (modified propidium iodide assay), OVCAR3; type: cell-based, human; details: 4 days exposure, median of duplicate experiments
Procedure: as §1, §2, §3, §4, §5, §6, §7

1138L = assay: monolayer proliferation assay (modified propidium iodide assay), 1138L; type: cell-based, human; details: 4 days exposure, median of duplicate experiments
Procedure: as §1, §2, §3, §4, §5, §6, §7

MCF7 = assay: monolayer proliferation assay (modified propidium iodide assay), MCF7; type: cell-based, human; details: 4 days exposure, median of duplicate experiments
Procedure: as §1, §2, §3, §4, §5, §6, §7

Yeast Hsp90 = Yeast Hsp90 (Saccharomyces cerevisiae, UniProt P02829); assay: Hsp90 binding, isothermal titration calorimetry
Procedure: Yeast Hsp90 was dialysed against 20 mM Tris pH 7.5 containing 1 mM EDTA and 5 mM NaCl and then diluted to 0.008 mM in the same buffer, but containing 2% DMSO. The test compounds were dissolved in 100% DMSO at a concentration of 50 mM and subsequently diluted to 0.1 mM in the same buffer as for Hsp90 with 2% DMSO. Heats of interaction were measured at 30° C. on a MSC system (Microcal), with a cell volume of 1.458 mL. 10 aliquots of 0.027 mL of 0.100 mM of each test compound were injected into 0.008 mM yeast Hsp90. Heats of dilution were determined in a separate experiment by injecting the test compound into buffer containing 2% DMSO, and the corrected data fitted using a nonlinear least square curve-fitting algorithm (Microcal Origin) with three floating variables: stoichiometry, binding constant and change in enthalpy of interaction.

H460 = assay: monolayer proliferation assay (modified propidium iodide assay), H460; type: cell-based, human; details: 4 days exposure, median of duplicate experiments
Procedure: as §1, §2, §3, §4, §5, §6, §7

SF268 = assay: monolayer proliferation assay (modified propidium iodide assay), SF268; type: cell-based, human; details: 4 days exposure, median of duplicate experiments
Procedure: as §1, §2, §3, §4, §5, §6, §7

LNCAP = assay: monolayer proliferation assay (modified propidium iodide assay), LNCAP; type: cell-based, human; details: 4 days exposure, median of duplicate experiments
Procedure: as §1, §2, §3, §4, §5, §6, §7

251L = assay: monolayer proliferation assay (modified propidium iodide assay), 251L; type: cell-based, human; details: 4 days exposure, median of duplicate experiments
Procedure: as §1, §2, §3, §4, §5, §6, §7

DU145 [2] = assay: monolayer proliferation assay (modified propidium iodide assay), DU145; type: cell-based, human; details: 4 days exposure, median of duplicate experiments
Procedure: as §1, §2, §3, §4, §5, §6, §7

Reverse transcriptase = details: Ono et al., 1982; cited from earlier work
[3] = molecular target: terminal deoxynucleotidyl transferase (Homo sapiens, UniProt P04053); details: Ono et al., 1982; cited from earlier work
terminal deoxynucleotidyl transferase, sequence (P04053 whole entry, species assumed): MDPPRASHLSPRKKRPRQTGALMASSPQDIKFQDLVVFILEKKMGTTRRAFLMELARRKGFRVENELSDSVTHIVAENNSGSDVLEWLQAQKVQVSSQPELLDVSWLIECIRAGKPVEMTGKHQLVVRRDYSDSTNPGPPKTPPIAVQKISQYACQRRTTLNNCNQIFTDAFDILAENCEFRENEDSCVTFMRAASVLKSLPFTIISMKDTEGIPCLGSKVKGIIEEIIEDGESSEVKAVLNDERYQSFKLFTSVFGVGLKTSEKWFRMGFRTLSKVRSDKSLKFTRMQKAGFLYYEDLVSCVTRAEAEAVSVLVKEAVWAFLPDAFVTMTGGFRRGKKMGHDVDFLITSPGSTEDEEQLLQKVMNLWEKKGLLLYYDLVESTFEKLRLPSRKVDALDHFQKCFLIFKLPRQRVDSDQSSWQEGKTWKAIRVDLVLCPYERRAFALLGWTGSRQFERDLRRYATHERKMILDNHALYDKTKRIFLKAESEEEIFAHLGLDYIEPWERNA

Yeast Hsp90, sequence (P02829 whole entry): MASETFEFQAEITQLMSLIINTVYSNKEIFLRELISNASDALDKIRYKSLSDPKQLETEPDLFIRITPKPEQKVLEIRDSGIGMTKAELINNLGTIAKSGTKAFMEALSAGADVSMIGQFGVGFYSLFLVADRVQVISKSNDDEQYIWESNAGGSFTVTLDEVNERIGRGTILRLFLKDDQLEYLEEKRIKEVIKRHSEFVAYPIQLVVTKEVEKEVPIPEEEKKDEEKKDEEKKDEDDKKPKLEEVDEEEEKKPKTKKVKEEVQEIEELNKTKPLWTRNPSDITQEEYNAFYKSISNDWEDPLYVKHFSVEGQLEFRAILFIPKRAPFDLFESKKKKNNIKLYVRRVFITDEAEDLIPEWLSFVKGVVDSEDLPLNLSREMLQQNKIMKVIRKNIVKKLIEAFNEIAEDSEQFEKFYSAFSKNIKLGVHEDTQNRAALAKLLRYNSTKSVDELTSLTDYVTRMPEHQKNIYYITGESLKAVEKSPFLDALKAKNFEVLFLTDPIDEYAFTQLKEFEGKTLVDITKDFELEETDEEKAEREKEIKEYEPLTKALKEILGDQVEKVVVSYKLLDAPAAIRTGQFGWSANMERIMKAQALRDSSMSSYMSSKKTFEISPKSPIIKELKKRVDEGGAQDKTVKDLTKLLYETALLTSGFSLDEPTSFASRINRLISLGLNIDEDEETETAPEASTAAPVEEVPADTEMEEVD

Structure (SMILES)	solubility (Solubility assay)	Test/Control (%) at drug concentration (394NL; 1 μg/mL)	Test/Control (%) at drug concentration (394NL; 10 μg/mL)	Test/Control (%) at drug concentration (OVCAR3; 1 μg/mL)	Test/Control (%) at drug concentration (OVCAR3; 10 μg/mL)	Test/Control (%) at drug concentration (1138L; 1 μg/mL)	Test/Control (%) at drug concentration (1138L; 10 μg/mL)	Test/Control (%) at drug concentration (MCF7; 1 μg/mL)	Test/Control (%) at drug concentration (MCF7; 10 μg/mL)	Test/Control (%) at drug concentration (H460; 1 μg/mL)	Test/Control (%) at drug concentration (H460; 10 μg/mL)	Test/Control (%) at drug concentration (SF268; 1 μg/mL)	Test/Control (%) at drug concentration (SF268; 10 μg/mL)	Test/Control (%) at drug concentration (LNCAP; 1 μg/mL)	Test/Control (%) at drug concentration (LNCAP; 10 μg/mL)	Test/Control (%) at drug concentration (251L; 1 μg/mL)	Test/Control (%) at drug concentration (251L; 10 μg/mL)	Test/Control (%) at drug concentration (DU145 [2]; 1 μg/mL)	Test/Control (%) at drug concentration (DU145 [2]; 10 μg/mL)	other results
COC1=C2C[C@@H](C)C[C@H](OC)[C@H](O)[C@@H](C)/C=C(\C)[C@H](OC(N)=O)[C@@H](OC)/C=C\C=C(/C)C(=O)NC(=CC1=O)C2=O [Geldanamycin, geldanamycin]	1.7 µM (≈ 0.953 µg/mL)																			
CO[C@H]1[C@@H](OC)C[C@H](C)[C@@H](OC)c2cc(O)cc(c2O)NC(=O)/C(C)=C/C=C\[C@H](C)[C@@H](OC(N)=O)/C(C)=C/[C@@H]1C [18,21-dihydromacbecin]	136 µM (≈ 76.3 µg/mL)																			
CO[C@H]1C[C@H](C)Cc2cc(O)cc(c2)NC(=O)/C=C/CC[C@H](OC)[C@@H](OC(N)=O)/C(C)=C/[C@H](C)[C@H]1O [KOSN1559]																				binding affinity to Hsp90, greater than 17-AAG (Hsp90; relative to 17-AAG): 8 fold; binding affinity to Hsp90, greater than geldanamycin (Hsp90; relative to geldanamycin): 4 fold
CC[C@]1(O)C[C@@H]2CN(CCc3c([nH]c4ccccc34)[C@@](C(=O)OC)(c3cc4c(cc3OC)N(C)[C@H]3[C@@](O)(C(N)=O)[C@H](O)[C@]5(CC)C=CCN6CC[C@]43[C@@H]65)C2)C1 [vindesine]																				IC70 of standard agent (DU145 [1]; combined with 14 at 80 nM): 0.8 ng/mL; IC70 of standard agent (DU145 [1]; combined with 14 at 120 nM): 0.6 ng/mL; IC70 of standard agent (DU145 [1]; combined with 14 at 160 nM): 0.1 ng/mL; IC70 of standard agent (DU145 [1]; concentration of 14: 0 nM (standard agent alone)): 0.9 ng/mL
CO[C@H]1C[C@H](C)Cc2cc(O)cc(c2)NC(=O)/C(C)=C/CC[C@H](C)[C@@H](OC(N)=O)/C(C)=C/[C@H](C)[C@H]1O [Compound 14, 7-O-carbamoylpre-macbecin]	≥ 500 µM	14%	13%	27%	28%	13%	14%	11%	9%	3%	4%	18%	16%	13%	12%	18%	16%	8%	6%	Kd (Yeast Hsp90; yeast Hsp90, ITC at 30° C., 2% DMSO, read-out: Kd values for Hsp90 binding): 3.2 nM
CO[C@H]1[C@@H](OC)C[C@H](C)[C@@H](OC)C2=CC(=O)C=C(NC(=O)/C(C)=C/C=C\[C@H](C)[C@@H](OC(N)=O)/C(C)=C/[C@@H]1C)C2=O [macbecin]	81 µM (≈ 45.3 µg/mL)	16%	13%	54%	11%	71%	31%	42%	19%	62%	25%	40%	6%	34%	32%	58%	44%	13%	5%	Reverse transcriptase activity inhibition (Reverse transcriptase): not inhibited; Kd (Yeast Hsp90): 240 nM; terminal deoxynucleotidyl transferase activity inhibition [3]: not inhibited
